Measured values: US6683230B1, “Hybrid seed production” (Syngenta Limited, priority 1998, dated 2004)
Read-outs that look alike come from different tables or passages of the source.

Tests used:
[1] = system: AlcA promoter
Text: 1) Oilseed rape (OSR) AlcA-GUS plants were root drenched with 250m1 of either water, 1% or 2% ethanol both on day 0 and day 1. Flower samples from these plants were then taken two days after the first induction.
The first two bars in each section represent uninduced anther and uninduced stigma/style GUS levels respectively. Each bar represents three replicates with each replicate containing anthers from three different flowers or stigma/styles from eight different flowers or ovaries from six different flowers.
2) Oilseed rape Aic-GUS flowers were subjected to GUS staining following induction with ethanol.
(§1) Flower material was ground in 2-300 μl of extraction buffer (100 mM sodium phosphate buffer pH 7, 10 mM EDTA, 0.1% Triton X-100, 1% Sarcosyl, 10 mM b-mercaptoethanol). Samples were spun in a microcentrifuge for 15 min and 5 μl of the supernatant was used for Bradford protein assays with BSA as standard. 20 μl was diluted 1 in 5 with extraction buffer and 400 μl of assay buffer (same for extraction buffer except contains 1 mM 4-MUG and 20% methanol). 100 μl was taken (T0 sample) and added to 900 μl of stop buffer (0.2M sodium carbonate) and the rest was incubated at 37° C. for two hours before taking a further 100 μl (T2 samples) to be added to 900 μl stop buffer.
(§2) Florescence of samples was measured in a spectrophotometer and GUS was represented as nM 4M U per mg protein per hour.
(§3) For the GUS staining, the protocol of Blume and Grierson (1997) was used.

[2] = system: AlcA promoter; remark: listed apart in the source
Experimental: as §1, §2, §3

[3] = system: AlcA promoter; conditions: ethanol vapour, two days after induction
Text: Alc-GUS tomoato flowers were induced using ethanol vapour as described above for tobacco flowers. Two days after induction, anthers and pollen were stained to detect GUS expression.
as §3

[4] = system: AlcA promoter; conditions: after induction with ethanol
[5] = system: AlcA promoter; conditions: 0.1% (v/v) ethanol in medium, 3 weeks
Experimental: as §1, §2

[6] = system: AlcA promoter; conditions: ethanol vapour, 2-3 days
Experimental: Scutellum tissue is bombarded with pUIRN.AGS and the tissue exposed to ethanol vapour. […] Transgenic Alc-GUS plants obtained are grown to maturity and seed harvested, inducible GUS expression is determined on the progeny plants in the same way as described above for rice.
as §3

[7] = system: AlcA promoter; remark: listed apart in the source
[8] = system: safener induced GST-27 promoter; assay: Reversal of sterility in GST-27-barstar maize WU25 by safener; format: in vivo
Text: The corn transformation vector Zm/RMS14 (described above) carries a barstar gene fused to the safener induced GST-27 promoter. WU25 was shown by PCR to contain this gene fusion. […] There was no effect of the safener on the size or fertility of tassels on non-transgenic fertile plants. […] The resumption of microspore development appears to be linked to the barstar inhibition of barnase thus overcoming the ablation of tapetal cells. […] In contrast, the anthers from sterile plants were collapsed.
The same promoter fragment was fused to barnase to generate the corn transformation vector ZM/RMS14 (FIG. 30). This fusion also contained an out of frame barstar gene with a functional bacterial promoter to provide protection against barnase during the cloning steps. Transgenic maize plants were obtained and several progressed for further analysis. One plant WU25 in particular was studied in some detail by analysing progeny derived from crosses with pollen from a fully fertile plant. All progeny inheriting the transgene as assessed by PCR and leaf paint to detect the pat gene were completely sterile, whereas progeny lacking the transgene were fully fertile. […] In all other respects sterile plants were indistinguishable from their fertile non-transgenic siblings.

[9] = system: lac repressor; conditions: tobacco protoplasts and stable transformants; cited from earlier work

Compound: CCO [ethanol]
- GUS levels, all tissues examined ([1]; 2% ethanol root drench): increase in GUS from both uninduced levels and from the water-treated control plant
- GUS staining of pistils ([1]; 5% ethanol treated plant vs water-treated): induction of GUS in the female tissues
- GUS staining of whole inflorescence ([1]; cut flower stem in 5% ethanol, two days): Blue staining is apparent in the filaments, sepals, petals and the stigma/style regions of the flower
- GUS staining of pistil sections ([1]; root drench 2% ethanol, two days): induction of GUS throughout the pistil region
- GUS levels in floral tissues ([1]; root drench 250 ml 1% or 2% ethanol day 0 and day 1, sampled two days after first induction): increase in GUS levels in floral tissues
- GUS staining of flower ([1]; two days after root drench with 250 ml of 5% ethanol): reporter gene induction in the stigma/style region as well as the filaments
- GUS in anthers ([2]; cut flower stems in 1%, 2% or 5% ethanol, two days): induced by ethanol in the anthers at levels above those seen in the water treated flowers
- GUS staining of pistils ([2]; root drench 250 ml 5% ethanol, two days): induction of GUS in the pistils
- GUS in anthers ([2]; vapour from 50 ml of 5% ethanol in sealed bag, 3 days): higher levels of GUS
- GUS staining of anthers and pollen [3]: blue staining was observed in both tissues
- reporter gene (CAT) levels in floral tissues [4]: increase in reporter gene levels in floral tissues
- GUS levels in callus [5]: levels can be increased with the addition of ethanol
- GUS staining of bombarded scutellum tissue [6]: numerous blue spots are seen
- concentration at which induction of GUS expression was observed ([7]; AlcA promoter): 7 ng/100 ml air
- toxicity to operators and environment ([7]; in vivo): non-toxic to operators and to the environment
- concentration at which the inducer is effective ([7]; root drench, aqueous spray or gas): 1%

Compound: CC1CN(C(=O)C(Cl)Cl)C(C)(C)O1 (centres unmarked) [R-29148]
- microsporogenesis ([8]; extended treatment with safener): anthers filled with immature post-mitotic pollen
- microspore development and tassel size ([8]; foliar application, field grown plants): A similar effect was seen
- size or fertility of tassels ([8]; non-transgenic fertile plants): no effect
- microspore development in anthers ([8]; root drench, glass house): microspore development was observed
- reversal of sterility ([8]; root drench, glass house grown plants): Reversal of sterility was demonstrated
- tassel size ([8]; treated vs untreated transgenic plants): increased tassel size relative to untreated plants

Compound: CC(C)S[C@@H]1O[C@H](CO)[C@H](O)[C@H](O)[C@H]1O [IPTG]
- repression of GUS expression by lac repressor [9]: repression can be relieved
